Results taken from patent EP2711366A1, “Cationic triphenylamine derivatives activable by visible and Infra Red light for inducing and imaging apoptosis in cancer cells” (Institut Curie, priority 2012, dated 2014).
Like-named read-outs stand apart in the source and are kept apart here. Numbered stars: 1 amine (or outer) side, 2 acyl side, 3 side chain; on linkers, the order of the positions; unused ones are H or OH. Bridge positions count the residues as written; N and C are the ends. Square brackets hold non-standard residues; d marks the D form. Peptide text beside a SMILES is read from it. I, II: the chains in the order shown. Actinocin(9to1) = Cc1c2oc3c(C)ccc(C(=O)[*:1])c3nc-2c(C(=O)[*:2])c(N)c1=O; NMeV = CN[C@H](C(=O)O)C(C)C; Sar = CNCC(=O)O

Legend:
[1] = Dark toxicity (MTT assay, without illumination); format: cell-based; conditions: human; MCF-7 cells, tested in dark; read-out: TC50 (toxicity concentration 50%), dark toxicity
Protocol: (§1) Different experiments were conducted and described below: • MCF7 cells were treated with 2µM of TP2Py or TP3Bzim and exposed to illumination (Fig.9A); • HeLa cells were treated with 2µM of TP2Py or TP3Bzim and exposed to illumination (Fig.9B); • MCF7 cells were treated with TP2Py, 40 min illumination (black circles) or without illumination (white circles) (Fig.9C) • HeLa cells were treated with TP2Py [30 min illumination (black circles) or without illumination (white circles)] or TP3Bzim [15 min illumination (black triangles) or without illumination (white triangles)]
(§2) For each experiment, the source of excitation was a Mercury lamp (130W; 380-600nm) with an excitation filter centered at 452nm (± 45 nm), irradiance, 60mW/cm^2.
(§3) First, the experiment was calibrated by determining the time of illumination exposure which leads to the toxicity 50%, for a given concentration of TPA (2 µM) and for an irradiance of 60mW/cm^2. […] This characteristic time was then used for the plots shown in Fig. 9C and 9D which represent the cell viability as a function of TPA concentration (in HeLa and MCF-7 cells, respectively).

[2] = cited from earlier work
[3] = at 630 nm; cited from earlier work
[4] = 532 or 665-nm line laser sources; cited from earlier work
[5] = in water up to 10 µM; cited from earlier work
DNA = conditions: b156 attributes 634 nm to DNA-bound TP2Py in vitro (Allains et al. 2007); cited from earlier work
HeLa cells [6] = assay: Cytophototoxicity by MTT assay under illumination; format: cell-based; conditions: irradiance 60mW/cm^2
Protocol: as §1, §2, §3

living MCF-7 cells = assay: One-photon confocal fluorescence microscopy, photo-induced nuclear translocation and membrane blebbing; format: cell-based; conditions: 2µM, 2 hours, confocal, λexc 458 nm (Fig. 5)
Protocol: One-photon epifluorescence and confocal images were obtained using a SP2 confocal microscope (Leica MicroSystem) equipped with an incubation chamber (37°C, CO2 5%). Excitation and emission filters for epifluorescence were 450-490 nm and 515-700 nm, respectively. A continuous laser line (458 nm) was used for excitation in the confocal mode.
The photo-induced nuclear translocation and membrane blebbing were next assessed using confocal fluorescence microscopy [λexc = 458 nm; emission slit settings: 560-720nm and 530-690nm for TP2Py and TP3Bzim, respectively] under experimental conditions similar to those described in experiment 1 for epifluorescence experiments. The corresponding transmission images illustrating the concomitant membrane blebbing are shown below the confocal fluorescence images. Living MCF7 cells were incubated with 2µM TP3Bzim or TP2Py for 2 hours before observation. As shown in Fig. 5A (TP2Py) and in Fig. 5B (TP3BZim), the results obtained with confocal imaging were similar to those obtained with epifluorescence imaging (experiment 1), with however, some discrepancies in the time courses of event appearance, most likely due to the power of the excitation source which is different between epifluorescence and confocal experiments (see below). […] Based on both criteria (re-localization of the fluorescence signal and the formation of blebs), the deduced fluences were 22 and 40 J/cm^2 for TP2Py and TP3Bzim, respectively. […]
The TP2Py compound at a concentration of 2 µM was first incubated with living MCF-7 cells for 2 hours and then observed with confocal microscope with varying illumination power of the laser source [λ=458 nm; emission slit setting: 560-720 nm]. […] For each condition, the fluorescence intensity in ROIs corresponding to the nucleus was plotted as a function of time (the initial time value, t = 0, represents the first observation) (FIG.7C). Using integration time based on tmax values, light dose values, determined from experiments performed at irradiance of 5.6 or 30 mW/cm^2, were consistent (27.6 and 27 J/cm^2 respectively). These values are in accordance with the above-mentioned value for TP2Py (fluence, 22 J/cm^2 in Fig. 5).
Living MCF-7 cells were treated with varying concentrations of TP2Py for two hours (2µM; 0.2µM and 0.02µM) and observed with a confocal microscope [λexc = 458nm; irradiance 30mW/cm^2, emission slit setting: 560-720nm.] (FIG 8A: 2µM; FIG 8B: 0.2µM; FIGBC: 0.02µM).

HeLa cells [7] = test system: HeLa cells
Protocol: as §1, §2, §3

MCF-7 cells = assay: FITC-conjugated Annexin V staining, flow cytometric analysis (apoptosis); format: cell-based; conditions: proapoptotic controls, no illumination; ActD 1µg/mL; CPT 10µM for 2.5 hours
Protocol: MCF-7 cells were plated in 12-well plates (2.10^5 cells/well) and incubated with 2µM of TP2Py for 2h at 37°C. Under specific conditions (see Fig. 12), cells were further incubated with NAC (1mM) for 30 min, Bapta-AM (20µM) for 3h, or CsA (10µM) for 1h at 37°C. After a time illumination of either 30 or 60 min at […] (Mercury lamp (130W; 380-600nm) + excitation filter centered at 452nm (± 45nm)), cells were gently scraped and pooled with medium floating cells. Cells were individualized in PBS-EDTA (10mM) and stained as described by the manufacturer (Roche, Germany). Briefly, the cell pellet was re-suspended in 500µl Annexin V-HEPES solution (10 mM HEPES-NaOH, pH 7.4, 140mM NaCl, 5mM CaCl2) and incubated on ice for 30 min in the dark. Cells were then washed in ice-cold HEPES buffer before analysis. Fluorescence signals of fluorescently labelled (FITC) Annexin V and TP2Py were measured by a FACSCalibur flow cytometer (Becton-Dickinson, Sunnyvale, CA, USA) using FL1 and FL2 detectors, respectively.
Different experiments are summarized below: • MCF-7 cells treated with 2µM TP2Py for 2 hours and then stained with FITC-conjugated Annexin V immediately (Fig.12A) without light exposure; • MCF-7 cells treated with 2µM TP2Py for 2 hours and then stained with FITC-conjugated Annexin V after a time illumination (Exc, 452 nm) of 30 min (Fig.12B); • MCF-7 cells treated with 2µM TP2Py for 2 hours and then stained with FITC-conjugated Annexin V after a time illumination (Exc, 452 nm) of 60 min (Fig.12C); • control MCF-7 cells treated with DMSO (1%) only and illuminated for 30 min before Annexin V staining (Fig.12D); • control MCF-7 cells treated with 1µg/mL actinomycin D (ActD), no illumination before Annexin V staining (Fig.12E); • control MCF-7 cells treated with camptothecin (CPT, 10µM)) (Fig.12F) for 2.5 hours, no illumination before Annexin V staining; • MCF-7 cells treated during 2 hours with 2µM TP2Py and 10µM cyclosporine A (CsA) and illuminated for 30 min before Annexin V staining (Fig.12G); • MCF-7 cells treated during 2 hours with 2µM TP2Py and 1 mM N-Acetyl cysteine (NAC) and illuminated for 30 min before Annexin V staining (Fig.12H); and • MCF-7 cells treated during 2 hours with 2µM TP2Py and 20µM Bapta-am (Fig.12I) and illuminated for 30 min before Annexin V staining.
The horizontal (FL1-H) and vertical (FL2-H) axes correspond to the fluorescence signal of Annexin V and TP2Py, respectively. The percentage of population with a high mean fluorescence signal is indicated in the corresponding quadrant (top right or bottom right in the presence or absence of TP2Py, respectively).

## Cn1c(/C=C/c2ccc(N(c3ccccc3)c3ccc(/C=C/c4n(C)c5ccccc5[n+]4C)cc3)cc2)[n+](C)c2ccccc21 [Tp2Bzim]
[1]
  CC50: 10 µM

## Photofrin®
[2]; at 800 nm
  two-photon cross-section: 10 GM
[2]; at 900 nm
  two-photon cross-section: 5 GM
[3]
  extinction coefficient: 3200 M⁻¹ cm⁻¹

## CN(C)c1ccc(C(=C2C=CC(=[N+](C)C)C=C2)c2ccc(N(C)C)cc2)cc1 [CV, crystal violet]
[4]
  total fluence or light dose: 1.7 J/cm^2

## CN(C)c1ccc2nc3ccc(=[N+](C)C)cc-3sc2c1 [MB, methylene blue]
[4]
  total fluence or light dose: 1.7 J/cm^2

## C=Cc1c(C)c2cc3nc(c(CC(=O)O)c4[nH]c(cc5nc(cc1[nH]2)C(C)=C5CC)c(C)c4C(=O)O)[C@@H](CCC(=O)O)[C@@H]3C [chlorin e6]
[2]; at 800 nm
  two-photon cross-section: 29 GM
[5]
  quantum yield: 0.008-0.01

## C[n+]1ccccc1/C=C/c1ccc(N(c2ccccc2)c2ccc(/C=C/c3cccc[n+]3C)cc2)cc1 [Tp2Pyo]
[1]
  CC50: 20 µM

## Cn1c(/C=C/c2ccc(N(c3ccc(/C=C/c4n(C)c5ccccc5[n+]4C)cc3)c3ccc(/C=C/c4n(C)c5ccccc5[n+]4C)cc3)cc2)[n+](C)c2ccccc21 [TP3Bzim]
[1]
  CC50: > 30 µM
DNA
  λmax,emission: 572 nm
HeLa cells [6]; Mercury lamp, filter 452nm
  illumination time required for the same TC50 under illumination: 15 min
HeLa cells [6]
  corresponding light dose: 54 J/cm^2
Living MCF-7 cells
  deduced fluence (re-localization of the fluorescence signal and formation of blebs): 40 J/cm^2
HeLa cells [7]
  dark toxicity (concentration below which negligible): ≥ 50 µM

## CC(=O)Oc1c(I)cc2c(c1I)Oc1c(cc(I)c(OC(C)=O)c1I)C21OC(=O)c2c(Cl)c(Cl)c(Cl)c(Cl)c21 [RBA, Rose Bengal acetate]
[4]
  total fluence or light dose: 1.6 J/cm^2

## CC[C@@]1(O)C(=O)OCc2c1cc1n(c2=O)Cc2cc3ccccc3nc2-1 [camptothecin, reference compound]
MCF-7 cells
  HMFI population (Annexin V positive, TP2Py negative): 37%

## Cc1c2oc3c(C)ccc(C(=O)N[C@@H]4C(=O)N[C@H](C(C)C)C(=O)N5CCC[C@H]5C(=O)N(C)CC(=O)N(C)[C@@H](C(C)C)C(=O)O[C@@H]4C)c3nc-2c(C(=O)N[C@@H]2C(=O)N[C@H](C(C)C)C(=O)N3CCC[C@H]3C(=O)N(C)CC(=O)N(C)[C@@H](C(C)C)C(=O)O[C@@H]2C)c(N)c1=O [actinomycin D, reference compound] (I: T[dV]P[Sar][NMeV] / II: T[dV]P[Sar][NMeV]; ester I:1-I:C, II:1-II:C; linker I:N-II:N via Actinocin(9to1))
MCF-7 cells
  HMFI population (Annexin V positive, TP2Py negative): 34%
